According to patent publication US20250345318A1, “COMPOUND AND USE THEREOF IN PREVENTING OR TREATING RADIATION DAMAGE” (SIMCERE PHARMACEUTICAL CO., LTD., priority 2022, published 2025):

How the values were obtained:
IEC-6 cells [1] = assay: γ-H2AX immunofluorescence in irradiated IEC-6 cells (Example 13); type: cell-based; conditions: JAC4 + radiation
Description: The cell immunofluorescent images of γ-H2AX in different treatment groups were recorded after the IEC-6 cells were irradiated, and the mean fluorescence intensity of individual cells (***p<0.001) was measured using Image J. The results are shown in FIG. 19.

IEC-6 cells [2] = assay: Mitochondrial membrane potential by JC-1 staining in irradiated IEC-6 cells (Example 13); type: cell-based; conditions: JAC4 24 h pretreatment + 12 Gy, 24 h after
Description: IEC-6 cells were pretreated for 24 h with JAC4 ([…]) or DMSO and subjected to radiation (12 Gy) treatment. After 24 h the ROS produced in the IEC-6 cells was determined with a DCFH probe, the apoptosis of IEC-6 cells was determined by Hoechst staining, the mitochondrial membrane potential in IEC-6 cells was determined by JC-1 staining, and the apoptotic IEC-6 cell ratio of cells different treatments and the red/green fluorescence ratio in IEC-6 cells after different treatments were calculated (**p<0.01 and ***p<0.001).

C57BL/6 male mice [3] = assay: Body weight, spleen and thymus indexes and HE staining after total body irradiation (Example 3); type: in vivo
Description: C57BL/6 male mice (24.8±1,6 g in body weight) aged 10 weeks were divided into 4 groups of 8 mice each. After acclimating to the environment, JAC4 (100 mg/kg) or an equal volume of vehicle (polyethylene glycol:ethanol:physiological saline=47.5:7.5:50, v/v/v) was orally administered to the mice once daily for 7 consecutive days. After that, the mice in one JAC4 treatment group and one vehicle group were subjected to total body X-ray irradiation (6 Gy) and JAC4 or vehicle treatment was continued. After 3 days, the administration of JAC4 or vehicle was discontinued, and blood samples, small intestine tissues, and thymus and spleen tissues were collected 4 days later.
HE staining was performed on spleen tissues and thymus tissues from mice in all groups, with procedures as follows:
(1) Section deparaffinization: 1) xylene I treatment for 5 min; 2) xylene II treatment for 5 min; 3) xylene III treatment for 5 min; 4) 100% ethanol treatment for 5 min; 5) 100% ethanol II treatment for 5 min; 6) 95% ethanol treatment for 5 min; 7) 90% ethanol treatment for 5 min; 8) 85% ethanol treatment for 5 min; 9) 70% ethanol treatment for 5 min; 10) 60% ethanol treatment for 5 min.
(2) HE staining: After being rinsed with double-distilled water, the sections were stained with hematoxylin solution for 6 min, differentiated with 0.5% hydrochloric acid in alcohol for a short period, and then placed in double-distilled water for bluing. When the chromatin within the cell nuclei was clearly visible under a microscope, the sections were stained with 0.5% eosin for 30 s.

SPCA-1 cells [4] = assay: Apoptosis (Hoechst 33342) and mitochondrial membrane potential (JC-1), SPCA-1 (Example 22); type: cell-based, human
Description: Severe DSBs may cause apoptosis. SPCA-1 and BEAS-2B cells were plated and cultured for 24 h before they were treated with 10 μM JAC4 for 24 h and 4 Gy X-ray for 24 h. The cells were stained with Hoechst 33342 (see Hoechst staining for apoptosis detection in Example 13) to evaluate the effect of JAC4 in combination with radiation on apoptosis. […] The decrease in mitochondrial membrane potential (JC-1) is a marker event in the early stage of apoptosis. The mitochondrial membrane potential was measured using fluorescent probe JC-1. The red fluorescence indicates a high mitochondrial membrane potential leading to JC-1 aggregate formation, and the green fluorescence indicates the mitochondrial membrane potential depolarization. The fluorescence ratio of red to green reflects the mitochondrial membrane potential and the number of early apoptotic cells.

SPCA-1 cells [5] = assay: Plate colony formation, SPCA-1 (Example 22); type: cell-based, human
Description: The cell proliferation capacity was determined by a plate colony formation experiment, with the following specific procedures.
1. SPCA-1 and BEAS-2B cells (or SPCA-1 and BEAS-2B cells transfected with JWA-knockdown plasmids) in the exponential growth phase were plated in 6-well plates at a specific amount. The number of plated cells is as follows
2. After the cells adhered to the container wall, the cells were treated (or not treated) with […] JAC4 and treated with X-ray of 0, 2, 4, or 6 Gy. The medium was replaced with a fresh medium containing JAC4 at the corresponding concentration once every 2 days (or the cells were treated with X-ray of 0, 2, 4, or 6 Gy after adhesion, and the medium was replaced with a fresh medium once every 2 days).
3. After the cells were cultured for 10-14 days, colonies were visually observed. The culture medium was discarded, and the cells were fixed with methanol for 10-20 min, stained with crystal violet for 10 min, slowly washed with flowing clear water thrice, photographed, and counted for colonies containing>50 cells.
4. The colony forming efficiency (CFE)=(number of colonies formed/number of seeded cells) 100% was calculated, and the cell survival fraction (SF)=(colony forming efficiency of treatment group/colony forming efficiency of 0 Gy group)×100% was calculated from the colony forming efficiency.

C57BL/6 male mice [6] = assay: Small intestine epithelial injury after abdominal X-ray irradiation 12 Gy (Example 10); type: in vivo; conditions: for small intestine crypt height / small intestine histopathological score: JAC4 100 mg/kg; for small intestine villus length: JAC4 100 mg/kg oral 7 days
Description: C57BL/6 male mice (24.7±0.9 g in body weight) aged 10 weeks were divided into 3 groups: a vehicle control group (n=6), a vehicle+radiation group (n=12), and a JAC4+radiation group (n=12). JAC4 (100 mg/kg) or an equal volume of vehicle (polyethylene glycol:ethanol:physiological saline=47.5:7.5:50, v/v/v) was orally administered to the mice once daily for 7 consecutive days. After that, the mice in the radiation groups were subjected to abdominal X-ray irradiation (12 Gy). The mice in the vehicle control group (n=6), the vehicle+radiation group (n=6), and the JAC4+radiation group (n=6) were sacrificed at 6 h, and blood samples and small intestine tissues were collected. The remaining mice in the vehicle+radiation group (n=6) and the JAC4+radiation group (n=6) were sacrificed after day 8, and blood samples and small intestine tissues were collected. In the process, abdominal irradiation was given while sparing the femoral region to minimize damage to the hematopoietic system. After the abdominal irradiation, HE staining was performed on the small intestines of mice in all groups, and the small intestine villus lengths, histopathological scores of the small intestine tissue sections, and the crypt heights were measured in all groups (* p<0.05, *** p<0.001).

[7] = JAC4 100 mg/kg oral + TBI 6 Gy vs vehicle + radiation
[8] = non-radiation, JAC4 100 mg/kg oral
[9] = SPCA-1, JAC4 in combination with X-ray
[10] = 6 h after abdominal X-ray 12 Gy
[11] = day 8 after abdominal X-ray 12 Gy

Compound: c1ccc(CSc2nnc(C3COc4ccccc4O3)o2)nc1 (stereo not shown) [JAC4]
- mean fluorescence intensity of γ-H2AX (IEC-6 cells [1]): 26.00±1.79
- red/green fluorescence ratio (JC-1, mitochondrial membrane potential) (IEC-6 cells [2]): 0.49±0.05
- spleen index (C57BL/6 male mice [3]; JAC4 100 mg/kg oral + TBI 6 Gy): 1.31 ± 0.18 mg/g
- thymus index (C57BL/6 male mice [3]; JAC4 100 mg/kg oral + TBI 6 Gy): 1.63 ± 0.24 mg/g
- HE staining of spleen tissue after X-ray radiation (C57BL/6 male mice [3]; [7]): no significant difference between the vehicle control group and the JAC4 group
- HE staining of thymus tissue after X-ray radiation (C57BL/6 male mice [3]; [7]): no significant difference between the vehicle control group and the JAC4 group
- degree of body weight loss (C57BL/6 male mice [3]; JAC4 100 mg/kg oral, TBI 6 Gy): significantly less than that in the control group
- spleen index (C57BL/6 male mice [3]; [8]): 3.22 ± 0.26 mg/g
- thymus index (C57BL/6 male mice [3]; [8]): 2.51 ± 0.43 mg/g
- apoptosis (Hoechst 33342) (SPCA-1 cells [4]; SPCA-1, 10 μM JAC4 24 h + 4 Gy X-ray 24 h): increased the pro-apoptotic effect of X-ray
- mitochondrial membrane potential (JC-1) (SPCA-1 cells [4]; [9]): aggravated the decrease in mitochondrial membrane potential
- cell survival (radiosensitization curve) (SPCA-1 cells [5]; SPCA-1, 10 μM JAC4 + X-ray vs X-ray monotherapy): significantly reduced
- number of colonies formed (SPCA-1 cells [5]; [9]): decreased
- small intestine crypt height (C57BL/6 male mice [6]; [10]): 49.80±4.06 μm
- small intestine histopathological score (C57BL/6 male mice [6]; [10]): 3.17±0.41
- small intestine villus length (C57BL/6 male mice [6]; [10]): 308.25±25.65 μm
- small intestine crypt height (C57BL/6 male mice [6]; [11]): 53.76±3.33 μm
- small intestine histopathological score (C57BL/6 male mice [6]; [11]): 2.83±0.41
- small intestine villus length (C57BL/6 male mice [6]; [11]): 300.38±33.27 μm
